Test results reported in patent US10227331B2 (priority 2015, dated 2019).

Assays:
IMP-1 = IMP-1 (Serratia marcescens, UniProt P52699); assay: biochemical; assay type: biochemical; conditions: CCF2-FA substrate, 2 hours at 25° C; read-out: IMP-1 IC50
Outline: (§1)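 Semi-log dose-response curves, fitted with a 4-parameter model, gave IC50s. The underlying signal was CCF2-FA fluorescence following 2 hours at 25° C with enzyme, substrate and inhibitor combined.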

NDM-1 = NDM-1 (Klebsiella pneumoniae, UniProt C7C422); assay: biochemical; assay type: biochemical; conditions: CCF2-FA substrate, 2 hours at 25° C; read-out: NDM-1 IC50
Chain of NDM-1 (C7C422 whole entry, looked up, species assumed): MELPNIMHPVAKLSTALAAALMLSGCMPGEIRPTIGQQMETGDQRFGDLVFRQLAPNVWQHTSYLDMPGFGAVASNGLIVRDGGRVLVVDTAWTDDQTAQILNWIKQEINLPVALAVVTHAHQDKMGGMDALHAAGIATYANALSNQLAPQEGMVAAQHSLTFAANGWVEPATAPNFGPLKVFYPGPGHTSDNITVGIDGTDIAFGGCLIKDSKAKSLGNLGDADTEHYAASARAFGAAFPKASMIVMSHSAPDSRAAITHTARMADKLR
Outline: as §1

[1] = tested on: P. aeruginosa expressing IMP-1, efflux+ (MB9798); assay type: cell-based, Pseudomonas aeruginosa; conditions: for P. aeruginosa expressing IMP-1, efflux+ (MB9798) MITC95: imipenem at 2 μg/mL, in the presence of a class A, C, D serine β-lactamase inhibitor closely related to relebactam; for Efflux ratio: ratio MITC95 PA_9798/MITC95 PA_9799
Text: (§2) The strain background is Pseudomonas aeruginosa PAO1.

[2] = tested on: Serratia marcescens expressing IMP-1 (CL5741); assay type: cell-based; conditions: with imipenem 1 μg/ml, 95% inhibition of bacterial growth; for Serratia marcescens MITC95: IMP-1 (CL5741)
Outline: (§3)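 Restoration of imipenem susceptibility (1 μg/ml imipenem) was judged by absorbance after 22–24 h at 35° C. Test compound was added to bacteria suspended 1:100 in 1.1× CAMHB from overnight blood-agar cultures.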

[3] = tested on: Escherichia coli expressing NDM-1 (CLB30005, CLB30016); assay type: cell-based; conditions: with imipenem 1 μg/ml, 95% inhibition of bacterial growth; for Escherichia coli MITC95: NDM-1 (CLB30016)
Outline: as §3

[4] = tested on: Klebsiella pneumoniae expressing VIM-1 (IHMA599644); assay type: cell-based; conditions: with imipenem 1 μg/ml, 95% inhibition of bacterial growth; for Klebsiella pneumoniae MITC95: VIM-1 (IHMA599644)
Outline: as §3

[5] = tested on: P. aeruginosa expressing IMP-1, efflux− (MB9799); assay: Efflux: concentration of MBL inhibitor which restores susceptibility to imipenem; assay type: cell-based, Pseudomonas aeruginosa; conditions: imipenem at 2 μg/mL, in the presence of a class A, C, D serine β-lactamase inhibitor closely related to relebactam
Text: as §2

VIM-1 = VIM-1 (Pseudomonas aeruginosa (strain ATCC 15692 / DSM 22644 / CIP 104116 / JCM 14847 / LMG 12228 / 1C / PRS 101 / PAO1), UniProt A0A0F7KYQ8); assay: biochemical; conditions: CCF2-FA substrate, 2 hours at 25° C
Outline: as §1

Chain of IMP-1 (P52699 whole entry, looked up, species assumed): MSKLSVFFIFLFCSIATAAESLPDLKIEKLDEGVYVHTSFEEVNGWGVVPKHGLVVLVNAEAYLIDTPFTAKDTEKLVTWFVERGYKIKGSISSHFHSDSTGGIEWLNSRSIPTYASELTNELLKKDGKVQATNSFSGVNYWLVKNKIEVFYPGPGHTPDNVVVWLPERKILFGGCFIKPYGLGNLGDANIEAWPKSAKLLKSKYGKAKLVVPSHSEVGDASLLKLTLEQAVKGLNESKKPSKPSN

SMILES | IC50 (IMP-1) [nM] | IC50 (NDM-1) [nM] | P. aeruginosa expressing IMP-1, efflux+ (MB9798) MITC95 [1] [µM] | Efflux ratio [1] | Serratia marcescens expressing IMP-1 (CL5741) MITC95 [2] [µM] | Escherichia coli expressing NDM-1 (CLB30016) MITC95 [3] [µM] | Klebsiella pneumoniae expressing VIM-1 (IHMA599644) MITC95 [4] [µM] | P. aeruginosa expressing IMP-1, efflux− (MB9799) MITC95 [5] [µM] | IC50 (VIM-1) [nM] | Serratia marcescens MITC95 [2] [µM] | Escherichia coli MITC95 [3] [µM] | Klebsiella pneumoniae MITC95 [4] [µM]
CS(=O)(=O)c1ccc(-c2cccc3cn[nH]c23)c(-c2nn[nH]n2)c1S(N)(=O)=O [Example 191, 3-(1H-indazol-7-yl)-6-(methylsulfonyl)-2-(2H-tetrazol-5-yl)benzenesulfonamide] | 0.21 | 0.436 | 25 | 15.99 | 3.125 | 3.125 | 6.25 | 1.563 | 0.298 | – | – | –
NS(=O)(=O)c1c(S(=O)(=O)C2CNC2)ccc(-c2cnn3c2CCCC3)c1-c1nnn[nH]1.O=C(O)C(F)(F)F [Example 129, 3-((2-sulfamoyl-4-(4,5,6,7-tetrahydropyrazolo[1,5-a]pyridin-3-yl)-3-(1H-tetrazol-5-yl)phenyl)sulfonyl)azetidin-1-ium 2,2,2-trifluoroacetate] | 2.63 | 0.647 | 25 | 15.99 | 6.25 | 6.25 | 6.25 | 1.563 | 1.24 | – | – | –
Nc1nc2cccc(-c3ccc(S(=O)(=O)[C@H]4C[C@@H](N)C4)c(S(N)(=O)=O)c3-c3nn[nH]n3)c2[nH]1 [Example 176, 3-(2-amino-3H-benzo[d]imidazol-4-yl)-6-((1s, 3s)-3-aminocyclobutylsulfonyl)-2-(2H-tetrazol-5-yl)benzenesulfonamide] | 1.09 | 0.25 | 0.7813 | 1.00 | 0.7813 | 0.7813 | 1.563 | 0.7813 | 0.831 | – | – | –
Nc1cccc(-c2ccc(S(=O)(=O)C3CNC3)c(S(N)(=O)=O)c2-c2nn[nH]n2)n1 [Example 223, 3-(6-aminopyridin-2-yl)-6-(azetidin-3-ylsulfonyl)-2-(2H-tetrazol-5-yl)benzenesulfonamide] | 10.2 | 2.51 | 6.25 | 2.00 | 3.125 | 0.7813 | 6.25 | 3.125 | 3.16 | – | – | –
NCCS(=O)(=O)c1ccc(-c2cccc3cnccc23)c(-c2nnn[nH]2)c1S(N)(=O)=O.O=C(O)C(F)(F)F [Example 171] | 1.02 | 0.306 | 12.5 | 8.00 | 3.125 | 1.563 | 6.25 | 1.563 | 0.272 | – | – | –
Cn1nc(N)c2c(-c3ccc(S(=O)(=O)C4CNC4)c(S(N)(=O)=O)c3-c3nnn[nH]3)cccc21 [Example 265, 3-(3-amino-1-methyl-1H-indazol-4-yl)-6-(azetidin-3-ylsulfonyl)-2-(1H-tetrazol-5-yl) benzenesulfonamide] | 1.49 | 0.168 | 6.25 | 4.00 | – | – | – | 1.563 | 0.239 | 1.563 | 3.125 | 6.25
NCCS(=O)(=O)c1ccc(-c2ccc(C3CCNCC3)cc2)c(-c2nn[nH]n2)c1S(N)(=O)=O [Example 322, 4-((2-aminoethyl)sulfonyl)-4′-(piperidin-4-yl)-2-(2H-tetrazol-5-yl)-[1,1′-biphenyl]-3-sulfonamide] | 0.17 | 0.731 | 1.563 | 2.00 | – | – | – | 0.7813 | 0.205 | 1.563 | 1.563 | 3.125
Nc1cn2cccc(-c3ccc(S(=O)(=O)C4CNC4)c(S(N)(=O)=O)c3-c3nnn[nH]3)c2n1 [Example 65, 3-(2-Aminoimidazo[1,2-a]pyridin-8-yl)-6-(azetidin-3-ylsulfonyl)-2-(H-tetraazol-5-yl)benzenesulfonamide] | 2.5 | 0.784 | 25 | 4.00 | 6.25 | 1.563 | 12.5 | 6.25 | 0.627 | – | – | –
NCCN1CC(S(=O)(=O)c2ccc(-c3cccc4[nH]c(N)nc34)c(-c3nn[nH]n3)c2S(N)(=O)=O)C1 [Example 51, 3-(2-amino-1H-benzo[d]imidazol-4-yl)-6-(1-(2-aminoethyl)azetidin-3-ylsulfonyl)-2-(2H-tetrazol-5-yl)benzenesulfonamide] | 1.31 | 0.145 | 0.7813 | 1.00 | 0.7813 | 0.3906 | 1.563 | 0.7813 | 0.426 | – | – | –
Nc1nc2cc(-c3ccc(SC4CNC4)c(S(N)(=O)=O)c3-c3nn[nH]n3)ccc2[nH]1 [Example 1, 3-(2-amino-1H-benzo[d]imidazol-5-yl)-6-(azetidin-3-ylthio)-2-(2H-tetrazol-5-yl)benzenesulfonamide] | 422 | 20.8 | 50 | 8.00 | 6.25 | 0.3906 | 6.25 | 6.25 | 141 | – | – | –
NS(=O)(=O)c1c(SC2CNC2)ccc(-c2cnc3ccccn23)c1-c1nn[nH]n1 [Example 7, 6-(azetidin-3-ylthio)-3-(imidazo[1,2-a]pyridin-3-yl)-2-(2H-tetrazol-5-yl)benzenesulfonamide] | 50.4 | 7.55 | 25 | 8.00 | 3.125 | 0.3906 | 6.25 | 3.125 | 25.6 | – | – | –
